Source: article PMC10819888, “Benzimidazole-Based Derivatives as Apoptotic Antiproliferative Agents: Design, Synthesis, Docking, and Mechanistic Studies” (Molecules, 2024)
Like-named read-outs stand apart in the source and are kept apart here.

What was measured:
A549/ATCC = assay: NCI-60 five-dose assay; type: cell-based, human; details: A549/ATCC, Non-Small Cell Lung Cancer
[1] = system: Non-Small Cell Lung Cancer subpanel; assay: NCI-60 five-dose assay, subpanel; type: cell-based, human; details: Non-Small Cell Lung Cancer
[2] = system: full panel of 60 human tumor cell lines; assay: NCI-60 five-dose assay, full panel; type: cell-based
Melanoma subpanel = assay: NCI-60 five-dose assay, subpanel; type: cell-based, human; details: Melanoma
U251 = assay: NCI-60 five-dose assay; type: cell-based, human; details: U251, CNS Cancer
UACC-257 = assay: NCI-60 five-dose assay; type: cell-based, human; details: UACC-257, Melanoma
HL-60(TB) = assay: NCI-60 five-dose assay; type: cell-based, human; details: HL-60(TB), Leukemia
OVCAR-3 = assay: NCI-60 five-dose assay; type: cell-based, human; details: OVCAR-3, Ovarian Cancer
Leukemia subpanel = assay: NCI-60 five-dose assay, subpanel; type: cell-based, human; details: Leukemia
BT-549 = assay: NCI-60 five-dose assay; type: cell-based, human; details: Homo sapiens, BT-549, Breast Cancer
SR = assay: NCI-60 five-dose assay; type: cell-based, human; details: SR, Leukemia
ACHN = assay: NCI-60 five-dose assay; type: cell-based, human; details: ACHN, Renal Cancer
SK-OV-3 = assay: NCI-60 five-dose assay; type: cell-based, human; details: SK-OV-3, Ovarian Cancer
NCI-H522 = assay: NCI-60 five-dose assay; type: cell-based, human; details: NCI-H522, Non-Small Cell Lung Cancer
CAKI-1 = assay: NCI-60 five-dose assay; type: cell-based, human; details: CAKI-1, Renal Cancer
OVCAR-5 = assay: NCI-60 five-dose assay; type: cell-based, human; details: OVCAR-5, Ovarian Cancer
HOP-92 = assay: NCI-60 five-dose assay; type: cell-based, human; details: HOP-92, Non-Small Cell Lung Cancer
SN12C = assay: NCI-60 five-dose assay; type: cell-based, human; details: SN12C, Renal Cancer
EGFR = EGFR (Homo sapiens, UniProt P00533); assay: EGFR inhibitory assay
EGFR, sequence (P00533 669-1210): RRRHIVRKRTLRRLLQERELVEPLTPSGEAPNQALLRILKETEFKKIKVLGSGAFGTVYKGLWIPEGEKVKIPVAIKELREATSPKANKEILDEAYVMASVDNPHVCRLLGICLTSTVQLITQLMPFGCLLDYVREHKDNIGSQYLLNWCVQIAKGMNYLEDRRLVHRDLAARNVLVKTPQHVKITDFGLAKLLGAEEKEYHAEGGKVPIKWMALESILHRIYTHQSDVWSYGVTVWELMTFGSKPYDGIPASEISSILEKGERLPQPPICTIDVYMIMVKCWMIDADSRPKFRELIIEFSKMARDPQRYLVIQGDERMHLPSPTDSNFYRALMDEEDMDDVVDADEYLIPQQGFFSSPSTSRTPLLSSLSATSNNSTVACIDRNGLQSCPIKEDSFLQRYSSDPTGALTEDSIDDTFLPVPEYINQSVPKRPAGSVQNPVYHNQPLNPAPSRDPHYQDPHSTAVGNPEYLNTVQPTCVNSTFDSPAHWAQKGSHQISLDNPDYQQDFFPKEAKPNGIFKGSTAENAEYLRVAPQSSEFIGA

HT29 = assay: NCI-60 five-dose assay; type: cell-based, human; details: HT29, Colon Cancer
BRAF^V600E = assay: biochemical
BRAF^V600E, sequence (P28028 whole entry V585E): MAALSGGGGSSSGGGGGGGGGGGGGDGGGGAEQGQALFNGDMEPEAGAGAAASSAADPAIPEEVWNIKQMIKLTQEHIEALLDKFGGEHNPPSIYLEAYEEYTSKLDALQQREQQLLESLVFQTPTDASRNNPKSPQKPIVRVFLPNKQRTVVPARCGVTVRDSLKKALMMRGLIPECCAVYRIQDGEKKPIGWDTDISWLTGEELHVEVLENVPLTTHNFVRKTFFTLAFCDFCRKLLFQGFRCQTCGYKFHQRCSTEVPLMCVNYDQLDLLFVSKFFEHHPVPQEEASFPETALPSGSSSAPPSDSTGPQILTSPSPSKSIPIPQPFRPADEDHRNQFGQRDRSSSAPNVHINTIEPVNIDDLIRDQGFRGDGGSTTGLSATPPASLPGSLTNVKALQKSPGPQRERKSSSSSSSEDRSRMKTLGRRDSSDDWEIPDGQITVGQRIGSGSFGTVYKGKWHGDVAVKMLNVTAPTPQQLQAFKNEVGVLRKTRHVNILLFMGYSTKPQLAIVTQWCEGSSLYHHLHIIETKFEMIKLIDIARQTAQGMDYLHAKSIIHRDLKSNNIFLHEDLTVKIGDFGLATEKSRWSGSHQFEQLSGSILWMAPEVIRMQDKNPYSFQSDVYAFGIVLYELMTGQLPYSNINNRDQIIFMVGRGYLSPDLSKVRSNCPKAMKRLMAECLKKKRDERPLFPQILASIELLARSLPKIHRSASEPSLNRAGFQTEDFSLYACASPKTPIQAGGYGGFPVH

[3] = Homo sapiens, read-out: GI50 Conc. per Cell Line
[4] = Homo sapiens, read-out: LC50 (the source's name)
[5] = Homo sapiens, average sensitivity of all subpanel cell lines, read-out: GI50 Subpanel MID b

## COc1ccc(C=NNC(=O)c2ccc3[nH]c(-c4ccc(Cl)cc4)nc3c2)cc1 [Compound 4g, N′-(4-Methoxybenzylidene)-2-(4-chlorophenyl)-1H-benzimidazole-5-carbohydrazide]
A549/ATCC
  TGI: 5.65 µM
A549/ATCC; [3]
  GI50: 2.46 µM
A549/ATCC; [4]
  CC50: 48.1 µM
[1]; [5]
  GI50: 2.71 µM
[1]
  GI50 Selectivity Ratio (MID a/MID b): 0.93
[2]; average sensitivity of all cell lines, read-out: MID a (GI50)
  GI50: 2.52 µM
[2]; five-dose assay, range over cell lines, read-out: GI50 range over the examined cell lines
  GI50: 0.997 to 7.81 µM
Melanoma subpanel; [5]
  GI50: 2.43 µM
Melanoma subpanel
  GI50 Selectivity Ratio (MID a/MID b): 1.04
U251; Homo sapiens, U-251, read-out: GI50 Conc. per Cell Line
  GI50: 2.43 µM
U251; Homo sapiens, U-251, read-out: LC50 (the source's name)
  CC50: 30.4 µM
U251
  TGI: 5.22 µM
UACC-257; [3]
  GI50: 3.27 µM
UACC-257; [4]
  CC50: 60 µM
UACC-257
  TGI: 10.10 µM
HL-60(TB)
  TGI: >100 µM
HL-60(TB); [3]
  GI50: 1.3 µM
HL-60(TB); [4]
  CC50: > 100 µM
OVCAR-3; [3]
  GI50: 2.28 µM
OVCAR-3; [4]
  CC50: 16 µM
OVCAR-3
  TGI: 5.14 µM
Leukemia subpanel; [5]
  GI50: 2.88 µM
Leukemia subpanel
  GI50 Selectivity Ratio (MID a/MID b): 0.87
BT-549; read-out: GI50 Conc. per Cell Line
  GI50: 3.36 µM
BT-549; read-out: LC50 (the source's name)
  CC50: > 100 µM
SR; [3]
  GI50: 2.87 µM
SR; [4]
  CC50: > 100 µM
SR
  TGI: 15.40 µM
ACHN
  TGI: 5.04 µM
ACHN; [3]
  GI50: 2 µM
ACHN; [4]
  CC50: 16.9 µM
SK-OV-3; [3]
  GI50: 2.3 µM
SK-OV-3; [4]
  CC50: 59.1 µM
SK-OV-3
  TGI: 12.80 µM
NCI-H522; [3]
  GI50: 7.6 µM
NCI-H522; [4]
  CC50: > 100 µM
NCI-H522
  TGI: 81.50 µM
CAKI-1
  TGI: 6.03 µM
CAKI-1; [3]
  GI50: 2.1 µM
CAKI-1; [4]
  CC50: 25.6 µM
OVCAR-5; [3]
  GI50: 2.35 µM
OVCAR-5; [4]
  CC50: 33.5 µM
OVCAR-5
  TGI: 6.89 µM
HOP-92
  TGI: 4.11 µM
HOP-92; Homo sapiens
  LC50 (50% lethal concentration): 15.1 µM
HOP-92; [3]
  GI50: 1.52 µM
SN12C; [3]
  GI50: 2.46 µM
SN12C; [4]
  CC50: 33.9 µM
SN12C
  TGI: 6.79 µM
EGFR
  IC50: 0.27 ± 0.03 µM
HT29
  TGI: 22.10 µM
HT29; Homo sapiens, HT-29, read-out: GI50 Conc. per Cell Line
  GI50: 3.09 µM
HT29; Homo sapiens, HT-29, read-out: LC50 (the source's name)
  CC50: > 100 µM
BRAF^V600E
  IC50: 0.6 ± 0.05 µM
